Assay results as given in patent US6930115B2, “Antitumor effect potentiators” (Mitsubishi Pharma Corporation, priority 2000, dated 2005).

How the values were obtained:
[1] = system: mouse B16-F10 melanoma cultured cells; experiment: Hematogenous pulmonary metastasis after transplantation of mouse B16-F10 melanoma cultured cells into tail vein; format: in vivo; conditions: alone
Experimental: • (1) Preparation of mouse B16-F10 melanoma cultured cells (hereinafter simply B16-F10) B16-F10 cells (a permission to use was obtained from US M.D. Anderson Cancer Center, Dr. I. Fidler and provided for use from Japanese Foundation for cancer research·cancer chemotherapy center, Dr. […] For experiment, B16-F10 cells were suspended in MEM at 5×10^5 cells/mL and 0.2 mL thereof was transferred into the tail vein of 8-week-old male C57BL/6 mice (8 per group). […] Alzet, model 1002, flow rate […], for use for 14 days), and the osmotic pump was intraperitoneally transplanted into the mice one day before the transplantation of B16-F10 cells. • (3) As regards cisplatin, a preparation for injection (product name: Randa injection) was diluted with physiological saline and intraperitoneally administered once the day after transplantation of B16-F10 cells. As regards etoposide, a preparation for injection (product name: […] injection) was diluted with physiological saline and repeatedly administered intraperitoneally once a day for 5 days starting from one day after transplantation of B16-F10 cells. Paclitaxel was purchased from Sigma chemicals Co., suspended in 0.5% metolose solution and repeatedly administered intraperitoneally once every other day (3 times/week for 2 weeks) starting from one day after transplantation of B16-F10 cells. […] In addition, the values of combination index (CI) of the action in concomitant use analyzed by Median Effect Analysis (References and [2]) with regard to the combination group of the compound of the present invention and the anticancer agent are summarized in Table 3 and Table 6.

[2] = system: Mouse melanoma B16-F10 cells; experiment: Measurement of cell growth activity (MTT), in vitro growth of B16-F10 cells; format: cell-based; conditions: 72 hr culture, MTT
Experimental: Mouse melanoma B16-F10 cells (the aforementioned) were cultured in MEM supplemented with 2 mM L-glutamine, 1 mM MEM non-essential amino acids, 1% MEM vitamins, 1 mM pyruvic acid and 5% FCS, and the cells were scraped off from the culture flask every 3-4 days with a cell scraper (No. 3010, manufactured by Coaster), diluted 10-fold and maintained by subculture. In the experiment examining the effect of the test substance on the cell growth, the B16-F10 cells maintained in vitro by subculture were recovered with a cell scraper, suspended in MEM supplemented with 10% FCS at 2×10^5 cells/mL and added to a 96 well microtest plate (Becton Dickinson) at 1×10^4 cells/50 μL/well. Furthermore, 50 μL of a test substance at a 2-fold concentration of the final concentration was added to the well, and cultured in a CO2 incubator (MCO-175, SANYO Electric Co., Ltd.) at 37° C., 5% CO2 95% air for 72 hr.
After culture, 10 mg/mL of MTT [(3-[4,5-Dimethylthiazol-2-yl]-2,5-diphenyl-tetrazolium bromide)] was added at 10 μL/well, which was followed by culture for 3 hr. Thereafter, 100 μL of 10% SDS (sodium dodecylsulfate)—0.01N HCl was added to dissolve the pigment and absorbance at 570 nm was measured with a multilabel counter (1420 ARVO SX, Pharmacia Biotech Corporation). According to the concentration of the test substance, each well was expressed by absorbance, and average value and standard error. Using the well, to which the medium alone was added, as a control, the growth inhibition rate was calculated according to the following formula. [formula] Analysis method: Based on the dose reaction curves of the inventive compound alone treatment group and cisplatin alone treatment group, the combination index (CI) of the action in concomitant use is calculated by median effect analysis (References and [2]). (Results)

For `COc1cc([C@@H]2c3cc4c(cc3[C@@H](O[C@@H]3O[C@@H]5CO[C@@H](C)O[C@H]5[C@H](O)[C@H]3O)[C@H]3COC(=O)[C@H]23)OCO4)cc(OC)c1O` [etoposide, reference compound], the “T/C±standard error (average number of pulmonary metastatic colonies of administration group/control group ×100)” value ([1]; Table 4, etoposide 1 mg/kg intraperitoneally once a day for 5 days) was 56.0 ± 3.0%, the “T/C±standard error (average number of pulmonary metastatic colonies of administration group/control group ×100)” value ([1]; Table 4, etoposide 2.5 mg/kg intraperitoneally once a day for 5 days) was 34.0 ± 7.4% and the “T/C±standard error (average number of pulmonary metastatic colonies of administration group/control group ×100)” value ([1]; Table 4, etoposide 5 mg/kg intraperitoneally once a day for 5 days) was 33.4 ± 4.0%. For the same compound, the “T/C±standard error (average number of pulmonary metastatic colonies of administration group/control group ×100)” value ([1]; Table 4, etoposide 10 mg/kg intraperitoneally once a day for 5 days) was 22.5 ± 4.2% and the “T/C±standard error (average number of pulmonary metastatic colonies of administration group/control group ×100)” value ([1]; Table 4, etoposide 25 mg/kg intraperitoneally once a day for 5 days) was 14.5 ± 2.6%.
In the case of `N.N.[Cl][Pt][Cl]` [cisplatin, reference compound], the “T/C±standard error (average number of pulmonary metastatic colonies of administration group/control group ×100)” value ([1]; Table 1, cisplatin 0.5 mg/kg intraperitoneally once, 14 days after cell transfer) is reported as 80.2 ± 13.2%, the “T/C±standard error (average number of pulmonary metastatic colonies of administration group/control group ×100)” value ([1]; Table 1, cisplatin 1 mg/kg intraperitoneally once, 14 days after cell transfer) is reported as 66.5 ± 8.3% and the “T/C±standard error (average number of pulmonary metastatic colonies of administration group/control group ×100)” value ([1]; Table 1, cisplatin 2.5 mg/kg intraperitoneally once, 14 days after cell transfer) is reported as 57.5 ± 3.0%. For the same compound, the “T/C±standard error (average number of pulmonary metastatic colonies of administration group/control group ×100)” value ([1]; Table 1, cisplatin 5 mg/kg intraperitoneally once, 14 days after cell transfer) was 53.3 ± 4.5%, the “T/C±standard error (average number of pulmonary metastatic colonies of administration group/control group ×100)” value ([1]; Table 1, cisplatin 10 mg/kg intraperitoneally once, 14 days after cell transfer) was 46.7 ± 4.1% and the “T/C±standard error (average number of pulmonary metastatic colonies of administration group/control group ×100)” value ([1]; Table 2, cisplatin 0.5 mg/kg intraperitoneally once, 14 days after cell transfer) was 81.7 ± 13.4%. For the same compound, the “T/C±standard error (average number of pulmonary metastatic colonies of administration group/control group ×100)” value ([1]; Table 2, cisplatin 1 mg/kg intraperitoneally once, 14 days after cell transfer) was 67.7 ± 8.4%, the “T/C±standard error (average number of pulmonary metastatic colonies of administration group/control group ×100)” value ([1]; Table 2, cisplatin 2.5 mg/kg intraperitoneally once, 14 days after cell transfer) was 58.6 ± 3.0% and the “T/C±standard error (average number of pulmonary metastatic colonies of administration group/control group ×100)” value ([1]; Table 2, cisplatin 5 mg/kg intraperitoneally once, 14 days after cell transfer) was 54.3 ± 4.6%. For the same compound, the “T/C±standard error (average number of pulmonary metastatic colonies of administration group/control group ×100)” value ([1]; Table 2, cisplatin 10 mg/kg intraperitoneally once, 14 days after cell transfer) was 30.8 ± 4.7%, the “average growth suppression rate ± standard error” value ([2]; cisplatin 10 μM alone) was 5.813 ± 1.510% and the “average growth suppression rate ± standard error” value ([2]; cisplatin 30 μM alone) was 29.609 ± 4.503%. The “average growth suppression rate ± standard error” value ([2]; cisplatin 100 μM alone) was 96.631 ± 0.109%.
With `CC(=O)O[C@H]1C(=O)[C@@]2(C)[C@H]([C@H](OC(=O)c3ccccc3)[C@]3(O)C[C@H](OC(=O)[C@H](O)[C@@H](NC(=O)c4ccccc4)c4ccccc4)C(C)=C1C3(C)C)[C@]1(OC(C)=O)CO[C@@H]1C[C@@H]2O` [paclitaxel, reference compound] the “T/C±standard error (average number of pulmonary metastatic colonies of administration group/control group ×100)” value ([1]; Table 5, paclitaxel 1 mg/kg intraperitoneally once every other day (3 times/week for 2 weeks)) was 75.9 ± 5.9%, the “T/C±standard error (average number of pulmonary metastatic colonies of administration group/control group ×100)” value ([1]; Table 5, paclitaxel 2.5 mg/kg intraperitoneally once every other day (3 times/week for 2 weeks)) was 48.8 ± 8.4% and the “T/C±standard error (average number of pulmonary metastatic colonies of administration group/control group ×100)” value ([1]; Table 5, paclitaxel 5 mg/kg intraperitoneally once every other day (3 times/week for 2 weeks)) was 37.3 ± 4.0%. The “T/C±standard error (average number of pulmonary metastatic colonies of administration group/control group ×100)” value ([1]; Table 5, paclitaxel 10 mg/kg intraperitoneally once every other day (3 times/week for 2 weeks)) was 30.3 ± 3.6% and the “T/C±standard error (average number of pulmonary metastatic colonies of administration group/control group ×100)” value ([1]; Table 5, paclitaxel 25 mg/kg intraperitoneally once every other day (3 times/week for 2 weeks)) was 31.5 ± 7.2%.
